Test results published in patent publication US11944624B2, “Peptide and small molecule agonists of EphA and their uses” (CASE WESTERN RESERVE UNIVERSITY, priority 2017, dated 2024).
“Also recorded” adds a separate entry of the source.

Columns and labels:
[1] = test system: MDA-MB-231, A172-A2 and PC3-DAB2IP KD cells; test: Chemotactic cell migration toward hepatocyte growth factor (HGF); type: cell-based; conditions: all three cell lines
From the text: (§1) One of the well-established functions of Eph receptors is the ligand-dependent repulsive guidance of cell migration. As a ligand-mimicking agonist for EphA2, doxazosin is expected to activate EphA2 on tumor cells and repulse migrating tumor cells in vitro. […] The inhibitory effects were observed when doxazosin was presented either in the bottom chamber, or in both top and bottom chambers in the Transwell assay system. […] Therefore, doxazosin can recapitulate a key function attributed to its native ligands, i.e., negative regulation of cell migration.

ERK and Akt activities = ERK and Akt activities in LK133A-Vec cells (EphA2 knockout); type: cell-based, mice
Protocol: (§2) Cells were plated in 24-well dishes at a density of 100,000 cells/well and grown for 24 hours prior to stimulation with appropriate compounds and ephrins for the given amounts of time. Compounds were prepared in DMSO at 500 times the final concentrations and 0.2% DMSO was used as vehicle control. Following treatment, cells were lysed directly in SDS Gel Loading Buffer and immunoblotted as described previously. Immunoprecipitation and immunofluorescence staining was performed as described. For immunoprecipitation, 300,000 cells/well were plated in 6-well dishes and lysed in modified RIPA Buffer (20 mM Tris-HCl pH 7.4, 20 mM NaF, 150 mM NaCl, 10% glycerol, 0.1% SDS, 0.5% DCA, 2 mM EDTA, 1% Triton X-100) following treatment. Either 10 μg of ephrin-A1-Fc, or […] of EphA2 mouse monoclonal antibody (Clone D7, Millipore) were used, and mouse IgG was used as a negative control for EphA2 IP.
To address this question, we utilized an immortalized liver epithelial cell line, LK133A, isolated from a hepatoma induced by DEN in EphA2 knockout mice. Retroviral vector was used to restore EphA2 expression in these cells (LK133A-A2), and cells transduced with an empty vector were used as control (LK133AVec).

EphA2 = EphA2 (Homo sapiens, UniProt P29317); test: EphA2 activation in A172-A2 glioma cells; type: cell-based; design: expressed in transfected cells
Chain of EphA2 (P29317 24-976): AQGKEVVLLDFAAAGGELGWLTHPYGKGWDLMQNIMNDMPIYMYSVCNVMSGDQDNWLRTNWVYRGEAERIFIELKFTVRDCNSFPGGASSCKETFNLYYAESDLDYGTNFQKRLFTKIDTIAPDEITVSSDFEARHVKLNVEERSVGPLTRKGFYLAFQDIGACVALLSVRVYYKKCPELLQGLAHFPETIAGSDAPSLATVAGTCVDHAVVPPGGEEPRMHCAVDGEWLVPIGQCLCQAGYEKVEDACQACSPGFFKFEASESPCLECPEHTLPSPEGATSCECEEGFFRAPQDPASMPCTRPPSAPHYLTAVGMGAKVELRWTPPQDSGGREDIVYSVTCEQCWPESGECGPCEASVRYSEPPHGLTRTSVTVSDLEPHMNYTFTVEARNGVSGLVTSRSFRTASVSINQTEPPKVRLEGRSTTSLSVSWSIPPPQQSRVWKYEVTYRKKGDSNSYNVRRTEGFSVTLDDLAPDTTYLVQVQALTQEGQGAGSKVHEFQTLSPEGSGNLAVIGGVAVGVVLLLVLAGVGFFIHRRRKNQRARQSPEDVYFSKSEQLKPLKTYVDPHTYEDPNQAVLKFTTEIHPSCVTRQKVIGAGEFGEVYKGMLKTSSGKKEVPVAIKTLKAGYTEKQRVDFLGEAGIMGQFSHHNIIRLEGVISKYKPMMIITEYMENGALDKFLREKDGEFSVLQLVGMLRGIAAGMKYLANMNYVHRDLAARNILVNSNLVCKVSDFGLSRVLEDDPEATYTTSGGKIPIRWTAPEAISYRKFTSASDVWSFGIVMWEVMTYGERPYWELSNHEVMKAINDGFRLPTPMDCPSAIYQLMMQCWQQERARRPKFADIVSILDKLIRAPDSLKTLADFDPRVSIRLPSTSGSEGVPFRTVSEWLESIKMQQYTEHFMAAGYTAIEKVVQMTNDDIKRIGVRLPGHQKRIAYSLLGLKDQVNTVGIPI
Protocol: as §2
Activation of EphA2 receptor by ephrin-A1 ligand inhibits both ERK1/2 and Akt kinase activities in most normal cells and a subset of cancer cells. […] We first tested this by utilizing the A172 glioma cells engineered to overexpress EphA2 receptor (A172-A2).

[2] = test system: MDA-MB-231 breast cancer cells; test: Haptotactic cell migration toward fibronectin, MDA-MB-231; type: cell-based; conditions: MDA-MB-231, 4 hours
From the text: as §1, with “vitro. To test this possibility, we first investigated the effects of doxazosin on integrin-mediated haptotactic cell migration toward fibronectin in a modified Boyden chamber cell migration assay.” for “vitro.”

EphA1 = molecular target: T1, EphA1 (Homo sapiens, UniProt P21709); test: EphA1 activation in HEK 293 cells overexpressing EphA1; type: cell-based; conditions: HEK 293 overexpressing EphA1, same concentrations
T1 construct: expressed in transfected cells; host or cells: HEK 293
T1 sequence (P21709 26-976): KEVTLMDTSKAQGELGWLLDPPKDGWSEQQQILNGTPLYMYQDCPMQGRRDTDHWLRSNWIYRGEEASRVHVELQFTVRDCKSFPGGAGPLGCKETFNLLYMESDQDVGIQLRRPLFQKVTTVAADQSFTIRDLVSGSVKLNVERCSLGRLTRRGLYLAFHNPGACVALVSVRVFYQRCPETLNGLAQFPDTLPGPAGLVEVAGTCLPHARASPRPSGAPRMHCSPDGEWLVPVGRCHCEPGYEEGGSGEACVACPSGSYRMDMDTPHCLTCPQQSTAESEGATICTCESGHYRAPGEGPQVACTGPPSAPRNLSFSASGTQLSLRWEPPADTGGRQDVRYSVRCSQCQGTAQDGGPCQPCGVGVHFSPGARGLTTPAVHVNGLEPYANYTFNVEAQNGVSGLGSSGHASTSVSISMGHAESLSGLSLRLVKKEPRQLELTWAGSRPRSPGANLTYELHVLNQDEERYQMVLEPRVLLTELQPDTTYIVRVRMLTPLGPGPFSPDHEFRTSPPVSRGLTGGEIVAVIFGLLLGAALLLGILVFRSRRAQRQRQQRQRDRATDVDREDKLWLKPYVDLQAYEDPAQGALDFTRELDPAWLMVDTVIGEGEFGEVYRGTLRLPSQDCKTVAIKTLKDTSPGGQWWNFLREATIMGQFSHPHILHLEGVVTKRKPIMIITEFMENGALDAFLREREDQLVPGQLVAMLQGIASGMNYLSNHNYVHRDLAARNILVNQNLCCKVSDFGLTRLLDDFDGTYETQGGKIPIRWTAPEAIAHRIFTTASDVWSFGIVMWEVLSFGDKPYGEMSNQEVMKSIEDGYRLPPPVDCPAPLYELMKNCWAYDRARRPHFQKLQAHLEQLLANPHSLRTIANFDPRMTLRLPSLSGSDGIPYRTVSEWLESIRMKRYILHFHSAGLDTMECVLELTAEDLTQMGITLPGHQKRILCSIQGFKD
Protocol: Cells were plated in 24-well dishes at a density of 100,000 cells/well and grown for 24 hours prior to stimulation with appropriate compounds and ephrins for the given amounts of time. Compounds were prepared in DMSO at 500 times the final concentrations and 0.2% DMSO was used as vehicle control. Following treatment, cells were lysed directly in SDS Gel Loading Buffer and immunoblotted as described previously. […] For immunoprecipitation, 300,000 cells/well were plated in 6-well dishes and lysed in modified RIPA Buffer (20 mM Tris-HCl pH 7.4, 20 mM NaF, 150 mM NaCl, 10% glycerol, 0.1% SDS, 0.5% DCA, 2 mM EDTA, 1% Triton X-100) following treatment. Either 10 μg of ephrin-A1-Fc, or 4 mg of EphA2 mouse monoclonal antibody (Clone D7, Millipore) were used, and mouse IgG was used as a negative control for EphA2 IP. […] For this purpose, HEK 293 cell lines overexpressing EphA1, EphA2, EphA3, EphA4, and EphB3 kinases were utilized.

COc1cc2nc(N3CCN(C(=O)C4COc5ccccc5O4)CC3)nc(N)c2cc1OC (stereo not drawn) [Doxazosin, 2-[4-(2,3-Dihydro-1,4-benzodioxine-2-carbonyl)piperazin-1-yl]-6,7-dimethoxyquinazolin-4-amine]
chemotactic cell migration toward HGF [1]: dose-dependent inhibition
effect on ERK and Akt activities in absence of EphA2 (ERK and Akt activities): neither doxazosin nor ephrin-A1-Fc was able to inhibit ERK and Akt activities; also recorded: notable increase in ERK and Akt activation
concentration at which EphA2 activation starts (EphA2; A172-A2 cells, 90 minutes): around 25 μM
EphA2 degradation (EphA2; A172 cells): degradation of EphA2 following doxazosin treatment
haptotactic cell migration toward fibronectin [2]: dose-dependent inhibition of cell migration
EphA1 activation (EphA1): no activation of EphA1
